Tests used:
PBMC (CSF-2) = assay: Macrophage survival (CCK-8); type: cell-based; conditions: Homo sapiens, 168 h, 7 days
Protocol: (§1) Murine bone marrow-derived macrophages (BMDMs) and PBMCs were used for cell viability studies. BMDMs were harvested by flushing the tibias and femurs of 6- to 8-week-old C57BL/6 mice and depleting red blood cells (RBCs) by RBC lysis (Biogems). For BMDM survival, the cells were cultured for 7 days in RPMI 1640 containing 10% fetal bovine serum (FBS), 100 U/mL penicillin, 100 μg/mL streptomycin and 100 ng/mL mouse CSF-1 (or CSF-2) with or without the tested compounds. PBMCs were obtained from HemaCare and cultured for 7 days in RPMI 1640 containing 10% fetal bovine serum (FBS), 100 U/mL penicillin, 100 μg/mL streptomycin and 100 ng/mL human CSF-1 (or CSF-2) with or without the tested compounds. Cell viability was measured using the CCK-8 assay. For IL-4/IL-13-induced macrophage survival analysis, viable cells were counted by trypan blue exclusion.

BMDM (CSF-2) = assay: Macrophage survival (CCK-8); type: cell-based, murine; conditions: 7 days
Protocol: as §1

BMDM (CSF-1) = assay: Macrophage survival (CCK-8); type: cell-based, murine; conditions: 7 days, mean ± SD
Protocol: (§2) Murine bone marrow and human monocytes were stimulated with CSF-1 for 7 days together with the indicated inhibitor, and cell viability was evaluated by the CCK-8 assay. The IC50 values are shown as the mean ± SD (nM) from two independent tests. B-E, To test the impact of 3D185 on the polarization of CSF-1-induced macrophages, murine bone marrow cells and human monocytes were induced to mature into macrophages with CSF-1 for 7 days and then stimulated with CSF-1, IL-4 and IL-13 for an additional 48 h. The expression of the markers MHC-II (b), CD86 (c), and CD206 (d) on induced murine macrophages and CD206 expression on induced human macrophages (e) were determined by flow cytometry, and the mean fluorescence intensity (MFI) was analyzed with FlowJo. Representative data from two independent experiments. f Murine bone marrow cells (left panel) and human monocytes (right panel) were induced to mature into macrophages with CSF-1 for 7 days and then stimulated with CSF-1, IL-4 and IL-13 and treated with vehicle or the indicated inhibitor for an additional 48 h. Then, all cells were collected to count viable cells by staining with trypan blue
as §1

PBMC (CSF-1) = assay: Macrophage survival (CCK-8); type: cell-based; conditions: Homo sapiens, 168 h, 7 days, mean ± SD
Protocol: as §2
Murine bone marrow-derived macrophages (BMDMs) and PBMCs were used for cell viability studies. […] Cell viability was measured using the CCK-8 assay. For IL-4/IL-13-induced macrophage survival analysis, viable cells were counted by trypan blue exclusion.

[1] = tested on: MC38 colorectal adenocarcinoma model; assay: In vivo antitumor activity, MC38 model; set-up: species or system C57BL/6 mice; conditions: oral once daily 23 days
Protocol: For the MC38 xenograft model, 6-week-old C57BL/6 mice were housed and maintained under specific pathogen-free conditions. Tumor cells (2 × 10^6 in 200 μL) were injected subcutaneously (s.c.) into the right flanks of C57BL/6 mice. […] The tumors were measured twice per week using a microcaliper. Tumor volume (TV) was calculated as follows: TV = (length × width^2)/2. In addition, the individual relative tumor volume (RTV) was calculated as follows: RTV = Vt / V0, where Vt is the volume on a particular day and V0 is the volume at the beginning of the treatment. The RTV is shown on the indicated days as the […] ± SEM for the indicated groups of mice.

[2] = tested on: CSF-1-differentiated macrophages induced RT112 cell migration; assay: Tumor cell migration assay (Transwell co-culture); type: cell-based, human; conditions: 25 nM, 24 h
M-NFS-60 = assay: Cell proliferation assay; type: cell-based, mouse; conditions: 72 h, mean ± SD
Protocol: (§3) The cancer cell lines indicated in Figure 3 were seeded in 96-well plates at a low density in growth medium. The next day, appropriate controls or the designated concentrations of the compounds were added to each well, and the cells were incubated for 72 h. HUVECs (passage 3) were seeded in 96-well plates in growth medium overnight and transferred to serum-free medium for 24 h. The following day, appropriate controls or the designated concentrations of the compounds were added to each well, and 100 ng/mL growth factor (bFGF or VEGF) was added to the indicated wells. The cells were incubated for 48 h. Finally, cell proliferation was determined using a sulforhodamine B (SRB) assay or a cell counting kit-8 (CCK-8) assay. […] IC50 values for proliferation curves were calculated using a 4-parameter logistic nonlinear regression model with SoftMax Pro Software (Molecular Devices, San Jose, USA).

UMUC14 = assay: Cell proliferation assay; type: cell-based, human; conditions: 72 h, mean ± SD
Protocol: as §3

SUM52PE = assay: Cell proliferation assay; type: cell-based, human; conditions: 72 h, mean ± SD
Protocol: as §3

HUH7 = assay: Cell proliferation assay; type: cell-based, human; conditions: 72 h, mean ± SD
Protocol: as §3

KG-1 = assay: Cell proliferation assay; type: cell-based, human; conditions: 72 h, mean ± SD
Protocol: as §3

NCI-H716 = assay: Cell proliferation assay; type: cell-based, human; conditions: 72 h, mean ± SD
Protocol: as §3

NCI-H1581 = assay: Cell proliferation assay; type: cell-based, human; conditions: 72 h, mean ± SD
Protocol: as §3

KATOIII = assay: Cell proliferation assay; type: cell-based, human; conditions: 72 h, mean ± SD
Protocol: as §3

RT112 = assay: Cell proliferation assay; type: cell-based, human; conditions: 72 h, mean ± SD
Protocol: as §3

SNU16 = assay: Cell proliferation assay; type: cell-based, human; conditions: 72 h, mean ± SD
Protocol: as §3

OPM2 = assay: Cell proliferation assay; type: cell-based, human; conditions: 72 h, mean ± SD
Protocol: as §3

Compound | IC50 (PBMC (CSF-2)) [nM] | IC50 (BMDM (CSF-2); Mus musculus, BMDM, 168 h) [nM] | IC50 (BMDM (CSF-1); Mus musculus, BMDM, 168 h) [nM] | IC50 (PBMC (CSF-1)) [nM] | effect on MC38 tumor growth [1] | effect on macrophage-induced RT112 cell migration [2] | IC50 (M-NFS-60) [nM] | IC50 (BMDM (CSF-2)) [nM] | IC50 (BMDM (CSF-1)) [nM] | IC50 (UMUC14) [nM] | IC50 (SUM52PE) [nM] | IC50 (HUH7) [nM] | IC50 (KG-1) [nM] | IC50 (NCI-H716) [nM] | IC50 (NCI-H1581) [nM] | IC50 (KATOIII) [nM] | IC50 (RT112) [nM] | IC50 (SNU16) [nM] | IC50 (OPM2) [nM]
FC(F)(F)c1ccc(CNc2ccc(Cc3c[nH]c4ncc(Cl)cc34)cn2)cn1 [PLX3397, reference compound] | > 1000 | > 1000 | 195 ± 48.2 | 220 ± 38.6 | delayed tumor growth | no inhibitory effect |  |  |  |  |  |  |  |  |  |  |  |  | 
AZD4547 [reference compound] |  |  |  |  |  |  | 1230 ± 184 | > 1000 | 883 ± 133 | 52.9 ± 4.6 | 15.5 ± 2.4 | 284 ± 22.5 | 3 ± 0.3 | 7 ± 0.9 | 43.8 ± 8.6 | 15.1 ± 2.9 | 83.3 ± 6.4 | 2.7 ± 0.4 | 33 ± 7.6
